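Method: 48-hour compound exposure of cells in 96-well plates, five concentrations, linear interpolation of endpoints. GI50 = concentration required for 50% inhibition of growth. At the TGI there is no net growth.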
Key:
Assay in all cases: inhibition of tumour cell growth, NCI panel, 48 h
A498 renal = test system: A498 renal
ACHN renal = test system: ACHN renal
BT-549 breast = test system: BT-549 breast
DU-145 prostate = test system: DU-145 prostate
HCT-116 colon = test system: HCT-116 colon
IGROV1 ovarian = test system: IGROV1 ovarian
MALME-3M melanoma = test system: MALME-3M melanoma
NCI-H226 lung = test system: NCI-H226 lung
NCI/ADR-RES ovarian = test system: NCI/ADR-RES ovarian
OVCAR-4 ovarian = test system: OVCAR-4 ovarian
OVCAR-5 ovarian = test system: OVCAR-5 ovarian
OVCAR-8 ovarian = test system: OVCAR-8 ovarian
PC-3 prostate = test system: PC-3 prostate
SF-539 CNS = test system: SF-539 CNS
SN12C renal = test system: SN12C renal
SNB-75 CNS = test system: SNB-75 CNS
TK-10 renal = test system: TK-10 renal
UACC-62 melanoma = test system: UACC-62 melanoma
UO-31 renal = test system: UO-31 renal
786-0 renal = test system: 786-0 renal
CAKI-1 renal = test system: CAKI-1 renal
COLO 205 colon = test system: COLO 205 colon
HCC-2998 colon = test system: HCC-2998 colon
HOP-62 NSCLC = test system: HOP-62 NSCLC
HOP-92 NSCLC = test system: HOP-92 NSCLC
MDA-MB-435 = test system: MDA-MB-435
NCI-H460 lung = test system: NCI-H460 lung
NCI-H522 lung = test system: NCI-H522 lung
RXF 393 renal = test system: RXF 393 renal
SF-268 CNS = test system: SF-268 CNS
SF-295 CNS = test system: SF-295 CNS
SK-MEL-2 melanoma = test system: SK-MEL-2 melanoma
SK-MEL-28 melanoma = test system: SK-MEL-28 melanoma
SK-MEL-5 melanoma = test system: SK-MEL-5 melanoma
SK-OV-3 ovarian = test system: SK-OV-3 ovarian
U251 CNS = test system: U251 CNS
UACC-257 melanoma = test system: UACC-257 melanoma
A549 NSCLC = test system: A549 NSCLC
HCT-15 colon = test system: HCT-15 colon
HL-60(TB) leukemia = test system: HL-60(TB) leukemia
HS 578T breast = test system: HS 578T breast
HT29 colon = test system: HT29 colon
KM12 colon = test system: KM12 colon
MDA-MB-231 breast = test system: MDA-MB-231 breast
MOLT-4 leukemia = test system: MOLT-4 leukemia
NCI-H23 lung = test system: NCI-H23 lung
SR leukemia = test system: SR leukemia
T-47D breast = test system: T-47D breast

FC(F)(F)c1cc(Nc2ccc3c(OCCCN4CCOCC4)cccc3n2)ccc1Cl
GI50 (A498 renal): 3120 nM | TGI (A498 renal): 48300 nM | GI50 (ACHN renal): 2980 nM | TGI (ACHN renal): 10300 nM | GI50 (BT-549 breast): 2430 nM | TGI (BT-549 breast): 8760 nM | GI50 (DU-145 prostate): 2780 nM | TGI (DU-145 prostate): > 100000 nM | GI50 (HCT-116 colon): 2070 nM | TGI (HCT-116 colon): 4550 nM | GI50 (IGROV1 ovarian): 3960 nM | TGI (IGROV1 ovarian): 37800 nM | GI50 (MALME-3M melanoma): 1690 nM | TGI (MALME-3M melanoma): 4110 nM | GI50 (NCI-H226 lung): 3540 nM | TGI (NCI-H226 lung): > 100000 nM | GI50 (NCI/ADR-RES ovarian): 3160 nM | TGI (NCI/ADR-RES ovarian): > 100000 nM | GI50 (OVCAR-4 ovarian): 3070 nM | TGI (OVCAR-4 ovarian): > 100000 nM | GI50 (OVCAR-5 ovarian): 2360 nM | TGI (OVCAR-5 ovarian): 6240 nM | GI50 (OVCAR-8 ovarian): 4330 nM | TGI (OVCAR-8 ovarian): > 100000 nM | GI50 (PC-3 prostate): 2260 nM | TGI (PC-3 prostate): > 100000 nM | GI50 (SF-539 CNS): 1900 nM | TGI (SF-539 CNS): 4010 nM | GI50 (SN12C renal): 3350 nM | TGI (SN12C renal): 16800 nM | GI50 (SNB-75 CNS): 1890 nM | TGI (SNB-75 CNS): 6200 nM | GI50 (TK-10 renal): 3490 nM | TGI (TK-10 renal): > 100000 nM | GI50 (UACC-62 melanoma): 2050 nM | TGI (UACC-62 melanoma): 4160 nM | GI50 (UO-31 renal): 1630 nM | TGI (UO-31 renal): 4290 nM

COc1cc2c(-c3nc4cc(Cl)c(F)cc4s3)cc(=O)oc2c(C)c1OC
GI50 (786-0 renal): 1020 nM | TGI (786-0 renal): 2210 nM | GI50 (A498 renal): 1500 nM | TGI (A498 renal): 2870 nM | GI50 (ACHN renal): 1360 nM | TGI (ACHN renal): 2810 nM | GI50 (BT-549 breast): 648 nM | TGI (BT-549 breast): 1820 nM | GI50 (CAKI-1 renal): 307 nM | TGI (CAKI-1 renal): 780 nM | GI50 (COLO 205 colon): 1660 nM | TGI (COLO 205 colon): 3320 nM | GI50 (DU-145 prostate): 1620 nM | TGI (DU-145 prostate): 3050 nM | GI50 (HCC-2998 colon): 2400 nM | TGI (HCC-2998 colon): 4290 nM | GI50 (HOP-62 NSCLC): 1670 nM | TGI (HOP-62 NSCLC): 3160 nM | GI50 (HOP-92 NSCLC): 498 nM | TGI (HOP-92 NSCLC): 2160 nM | GI50 (IGROV1 ovarian): 207 nM | TGI (IGROV1 ovarian): 662 nM | GI50 (MALME-3M melanoma): 311 nM | TGI (MALME-3M melanoma): 1140 nM | GI50 (MDA-MB-435): 1770 nM | TGI (MDA-MB-435): 3760 nM | GI50 (NCI-H226 lung): 1720 nM | TGI (NCI-H226 lung): 3990 nM | GI50 (NCI-H460 lung): 2110 nM | TGI (NCI-H460 lung): 4610 nM | GI50 (NCI-H522 lung): 176 nM | TGI (NCI-H522 lung): 354 nM | GI50 (OVCAR-4 ovarian): 1650 nM | TGI (OVCAR-4 ovarian): 3160 nM | GI50 (OVCAR-5 ovarian): 1800 nM | TGI (OVCAR-5 ovarian): 3390 nM | GI50 (OVCAR-8 ovarian): 1500 nM | TGI (OVCAR-8 ovarian): 3470 nM | GI50 (RXF 393 renal): 1550 nM | TGI (RXF 393 renal): 3080 nM | GI50 (SF-268 CNS): 1140 nM | TGI (SF-268 CNS): 3240 nM | GI50 (SF-295 CNS): 1010 nM | TGI (SF-295 CNS): 2340 nM | GI50 (SF-539 CNS): 183 nM | TGI (SF-539 CNS): 379 nM | GI50 (SK-MEL-2 melanoma): 2070 nM | TGI (SK-MEL-2 melanoma): 3900 nM | GI50 (SK-MEL-28 melanoma): 1810 nM | TGI (SK-MEL-28 melanoma): 3490 nM | GI50 (SK-MEL-5 melanoma): 1230 nM | TGI (SK-MEL-5 melanoma): 2560 nM | GI50 (SK-OV-3 ovarian): 1630 nM | TGI (SK-OV-3 ovarian): 3030 nM | GI50 (SNB-75 CNS): 620 nM | TGI (SNB-75 CNS): 1920 nM | GI50 (TK-10 renal): 1960 nM | TGI (TK-10 renal): 3470 nM | GI50 (U251 CNS): 1290 nM | TGI (U251 CNS): 2660 nM | GI50 (UACC-257 melanoma): 1380 nM | TGI (UACC-257 melanoma): 2890 nM | GI50 (UACC-62 melanoma): 1300 nM | TGI (UACC-62 melanoma): 2690 nM | GI50 (UO-31 renal): 154 nM | TGI (UO-31 renal): 339 nM

COC[C@H]1C(=O)NCC(=O)N2NCCC[C@H]2C(=O)N(O)[C@H](C)C(=O)O[C@@H](C(C)C)[C@H](NC(=O)[C@](C)(O)[C@]2(O)CC[C@@H](CC(C)C)[C@H](C)O2)C(=O)N2NCCC[C@@H]2C(=O)N1O
GI50 (A549 NSCLC): < 12.8 nM | TGI (A549 NSCLC): 28 nM | GI50 (ACHN renal): 16.8 nM | TGI (ACHN renal): 30.7 nM | GI50 (COLO 205 colon): 13.9 nM | TGI (COLO 205 colon): 28.4 nM | GI50 (DU-145 prostate): < 11.4 nM | TGI (DU-145 prostate): 23.2 nM | GI50 (HCT-15 colon): 17.6 nM | TGI (HCT-15 colon): 43.3 nM | GI50 (HL-60(TB) leukemia): 15.1 nM | TGI (HL-60(TB) leukemia): 39.9 nM | GI50 (HOP-62 NSCLC): < 10 nM | TGI (HOP-62 NSCLC): 14.9 nM | GI50 (HOP-92 NSCLC): 16.1 nM | TGI (HOP-92 NSCLC): 37.7 nM | GI50 (HS 578T breast): < 10 nM | TGI (HS 578T breast): 24.4 nM | GI50 (HT29 colon): 14.4 nM | TGI (HT29 colon): 29.3 nM | GI50 (KM12 colon): 10 nM | TGI (KM12 colon): 24.1 nM | GI50 (MALME-3M melanoma): 14.2 nM | TGI (MALME-3M melanoma): 29.1 nM | GI50 (MDA-MB-231 breast): < 11.1 nM | TGI (MDA-MB-231 breast): 43.2 nM | GI50 (MDA-MB-435): < 10 nM | TGI (MDA-MB-435): 12.8 nM | GI50 (MOLT-4 leukemia): < 10 nM | TGI (MOLT-4 leukemia): 46.4 nM | GI50 (NCI-H23 lung): < 10 nM | TGI (NCI-H23 lung): 36.4 nM | GI50 (NCI-H460 lung): < 10 nM | TGI (NCI-H460 lung): 12.5 nM | GI50 (NCI-H522 lung): 17.1 nM | TGI (NCI-H522 lung): 37.7 nM | GI50 (OVCAR-5 ovarian): 15 nM | TGI (OVCAR-5 ovarian): 33.3 nM | GI50 (OVCAR-8 ovarian): < 10 nM | TGI (OVCAR-8 ovarian): 30.6 nM | GI50 (PC-3 prostate): 17.4 nM | TGI (PC-3 prostate): 32.6 nM | GI50 (SF-539 CNS): 14.6 nM | TGI (SF-539 CNS): 28.5 nM | GI50 (SK-MEL-2 melanoma): 15.2 nM | TGI (SK-MEL-2 melanoma): 30.4 nM | GI50 (SK-MEL-28 melanoma): < 10 nM | TGI (SK-MEL-28 melanoma): 22.1 nM | GI50 (SK-OV-3 ovarian): 16.3 nM | TGI (SK-OV-3 ovarian): 30.6 nM | GI50 (SN12C renal): < 12.6 nM | TGI (SN12C renal): 41.1 nM | GI50 (SNB-75 CNS): < 10 nM | TGI (SNB-75 CNS): 11 nM | GI50 (SR leukemia): 11.8 nM | TGI (SR leukemia): 55.5 nM | GI50 (T-47D breast): 14.9 nM | TGI (T-47D breast): 33.2 nM | GI50 (TK-10 renal): 18.1 nM | TGI (TK-10 renal): 32.2 nM | GI50 (U251 CNS): < 10 nM | TGI (U251 CNS): 21.6 nM | GI50 (UACC-257 melanoma): 15 nM | TGI (UACC-257 melanoma): 29.2 nM | GI50 (UACC-62 melanoma): 15.4 nM | TGI (UACC-62 melanoma): 31.2 nM | GI50 (UO-31 renal): 19.2 nM | TGI (UO-31 renal): 45.8 nM

Source: PubChem BioAssay (NCI)
